Test results taken from patent US20230128889A1, “REL/RELA/SPOT SMALL MOLECULES MODULATORS AND SCREENING METHODS” (priority 2020, published 2023).
Read-outs that look alike come from different tables or passages of the source.

What was measured:
Assay type in all cases: binding, T. thermophilus
RelTt^NTD = RelTt^NTD (Thermus thermophilus, UniProt Q5SHL3); test: Isothermal Titration Calorimetry (ITC), titration into RelTt^NTD
Method: (§1) To directly address the sequential binding hypothesis, we monitored the binding of these nucleotides using Isothermal Titration Calorimetry (ITC). […] However, once the RelTt^NTD-GDP complex is formed, APCPP binds with an affinity of around 50 μM (FIG. 9h and Table 6). The incorporation of both GDP and APCPP is entropically driven (FIG. 11b and Table 6). In the case of the binding of GDP to the SYN-domain, the release of ordered water molecules from the GDP binding cleft is accompanied by the movement of α6-α7 that partially occludes the HD active center and an increase in the enzyme flexibility as observed in the crystal structure. All these structural changes are consistent with entropically driven binding events. […] In addition, it creates an ‘entropy reservoir’ that drives the binding of APCPP with the release of water molecules from the now exposed binding cleft. This supports the notion that GDP must ‘open’ the enzyme to reveal the ATP binding site, as predicted from the analysis of the crystallographic data.

RelTt^NTD-GDP complex = RelTt^NTD-GDP complex (Thermus thermophilus, UniProt Q5SHL3); test: ITC, titration into RelTt^NTD-GDP complex
RelTt^NTD-GDP complex, sequence (Q5SHL3 entry or part of it, one chain of several): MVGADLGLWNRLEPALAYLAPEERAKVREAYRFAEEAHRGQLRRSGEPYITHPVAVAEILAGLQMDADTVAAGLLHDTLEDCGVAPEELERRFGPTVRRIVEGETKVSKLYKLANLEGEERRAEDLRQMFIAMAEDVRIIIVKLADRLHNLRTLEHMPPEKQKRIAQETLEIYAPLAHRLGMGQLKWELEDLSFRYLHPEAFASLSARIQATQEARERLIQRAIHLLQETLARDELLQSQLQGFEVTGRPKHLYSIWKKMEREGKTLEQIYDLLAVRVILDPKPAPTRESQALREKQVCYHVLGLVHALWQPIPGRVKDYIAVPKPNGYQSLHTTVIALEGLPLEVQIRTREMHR
Method: as §1

RelTt^NTD-APCPP complex = RelTt^NTD-APCPP complex (Thermus thermophilus, UniProt Q5SHL3); test: ITC, titration into RelTt^NTD-APCPP complex
RelTt^NTD-APCPP complex, sequence (Q5SHL3 entry or part of it, one chain of several): as above
Method: as §1

RelTt^NTD, sequence (Q5SHL3 entry or part of it): as the sequence (Q5SHL3 entry or part of it, one chain of several) above

Nc1ncnc2c1ncn2[C@@H]1O[C@H](COP(=O)(O)CP(=O)(O)OP(=O)(O)O)[C@@H](O)[C@H]1O [APCPP]
Kd (RelTt^NTD): does not bind
Kd (RelTt^NTD-GDP complex): 50.4 µM
ΔG (RelTt^NTD-GDP complex): -5.67 ± 0.07 kcal/mol
ΔH (RelTt^NTD-GDP complex): 1.8 ± 1 kcal/mol
−TΔS (RelTt^NTD-GDP complex): -7.5 ± 1 kcal/mol

Nc1nc2c(ncn2[C@@H]2O[C@H](COP(=O)(O)OP(=O)(O)O)[C@@H](O)[C@H]2O)c(=O)[nH]1 [GDP]
ΔG (RelTt^NTD): -6.12 ± 0.01 kcal/mol
ΔH (RelTt^NTD): 1.3 ± 1 kcal/mol
−TΔS (RelTt^NTD): -7.6 ± 1 kcal/mol
Kd (RelTt^NTD; read-out: Kd): 23 µM
Kd (RelTt^NTD-APCPP complex): 24.7 ± 0.9 µM
ΔG (RelTt^NTD-APCPP complex): -6.1 ± 0.1 kcal/mol
ΔH (RelTt^NTD-APCPP complex): 0.4 ± 1 kcal/mol
−TΔS (RelTt^NTD-APCPP complex): -6.5 ± 1 kcal/mol
